Measurements published in patent publication US20250339399A1, “SUPRAMOLECULAR SELF-ASSEMBLY SYSTEM” (Beijing Creatron Institute of Pharmaceutical Research Co., …, priority 2022, published 2025).

Columns and labels:
[1] = parent flavonoid of the class; value follows the class name; cited from earlier work
[2] = Guest molecule concentration after incubation in initial medium without polymer (Comparative Example 1); type: physicochemical; conditions: 37° C., pH 6.8 phosphate buffer
In short: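 Dissolved guest content measured by HPLC of centrifuged supernatants (37° C., 13000 rpm, 5 min) sampled at 0.5 h, 3 h and 6 h. Incubation was polymer-free at 37° C.±0.5° C. in buffers of pH 2.0-7.4; nominal loading was set by maximum clinical dose.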

[3] = Binary supramolecular self-assembly systems of polymer and target: guest concentration over incubation time (Comparative Example 2); type: physicochemical; conditions: for Concentration of guest molecule in solution / Times that of the initial medium: 6 h
Method: Experiments were conducted according to the steps in Comparative Example 1, and quantitative analysis was carried out using the analytical method for each target to investigate the regulation ability […] stacking.

[4] = Binary (carrier), ternary and quaternary supramolecular self-assembly systems of polymer, carrier building block and target: guest concentration over incubation time (Examples 1-56); type: physicochemical; conditions: 6 h
In short: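 Targets were incubated at 37 °C in pH 2.0–7.4 buffers with 0.5% polymer alone or with carrier building blocks, after 0.5 h sonication for ternary systems, and shaken at 200 rpm. Samples at 0.5–6 h were centrifuged and diluted ≥10-fold, and dissolved target was quantified by HPLC; surfactant was added if needed.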

[5] = cited from earlier work
[6] = binary system with 0.5% polymer 101, incubation 0.5 h
[7] = binary system with 0.5% polymer 101, incubation 3 h
[8] = binary system with 0.5% polymer 101, incubation 6 h
[9] = binary system with 0.5% polymer 102, incubation 0.5 h
[10] = binary system with 0.5% polymer 102, incubation 3 h
[11] = binary system with 0.5% polymer 102, incubation 6 h
[12] = binary system with 0.5% polymer 103, incubation 0.5 h
[13] = binary system with 0.5% polymer 103, incubation 3 h
[14] = binary system with 0.5% polymer 103, incubation 6 h
[15] = binary system with 0.5% polymer 106, incubation 0.5 h
[16] = binary system with 0.5% polymer 106, incubation 3 h
[17] = binary system with 0.5% polymer 106, incubation 6 h
[18] = binary system with 0.5% polymer 107, incubation 0.5 h
[19] = binary system with 0.5% polymer 107, incubation 3 h
[20] = binary system with 0.5% polymer 107, incubation 6 h

Compound | Concentration of guest molecule measured after different incubated time ([2]; 0.5 h) [ng/mL] | Concentration of guest molecule measured after different incubated time ([2]; 3 h) [ng/mL] | Concentration of guest molecule measured after different incubated time ([2]; 6 h) [ng/mL] | Concentration of the target in the solution measured after different incubation time [3, 6] [ng/mL] | Concentration of the target in the solution measured after different incubation time [3, 7] [ng/mL] | Concentration of the target in the solution measured after different incubation time [3, 8] [ng/mL] | Concentration of the target in the solution measured after different incubation time [3, 9] [ng/mL] | Concentration of the target in the solution measured after different incubation time [3, 10] [ng/mL] | Concentration of the target in the solution measured after different incubation time [3, 11] [ng/mL] | Concentration of the target in the solution measured after different incubation time [3, 12] [ng/mL] | Concentration of the target in the solution measured after different incubation time [3, 13] [ng/mL] | Concentration of the target in the solution measured after different incubation time [3, 14] [ng/mL] | Concentration of the target in the solution measured after different incubation time [3, 15] [ng/mL] | Concentration of the target in the solution measured after different incubation time [3, 16] [ng/mL] | Concentration of the target in the solution measured after different incubation time [3, 17] [ng/mL] | Concentration of the target in the solution measured after different incubation time [3, 18] [ng/mL] | Concentration of the target in the solution measured after different incubation time [3, 19] [ng/mL] | Concentration of the target in the solution measured after different incubation time [3, 20] [ng/mL] | further results
O=c1c(O)c(-c2cc(O)c(O)c(O)c2)oc2cc(O)cc(O)c12 [Myricetin] |  |  |  |  |  |  |  |  |  |  |  |  |  |  |  |  |  |  | solubility value given in Table 1 (basic information of natural flavonoids) [1]: Myricetin (529-44-2) derivatives −3.14 mg/ml
CCCNS(=O)(=O)Nc1ncnc(OCCOc2ncc(Br)cn2)c1-c1ccc(Br)cc1 [Macitentan] | 35000 | 33800 | 28000 | 56000 | 75200 | 46200 | 56500 | 71500 | 89500 | 34300 | 28500 | 27700 | 41500 | 35600 | 32500 | 46500 | 43500 | 39300 | Concentration of the target in the solution measured after different incubation time ([3]; binary system with 0.5% polymer 110, incubation 0.5 h): 28700 ng/mL; Concentration of the target in the solution measured after different incubation time ([3]; binary system with 0.5% polymer 110, incubation 3 h): 34700 ng/mL; Concentration of the target in the solution measured after different incubation time ([3]; binary system with 0.5% polymer 110, incubation 6 h): 33500 ng/mL; Concentration of guest molecule in solution ([3]; binary: 0.5% 101): 46200 ng/mL; Times that of the initial medium ([3]; binary: 0.5% 101): 4.3 times; Concentration of guest molecule in solution ([3]; binary: 0.5% 102H): 89500 ng/mL; Times that of the initial medium ([3]; binary: 0.5% 102H): 10.4 times; Concentration of guest molecule in solution ([4]; Comparative Example 4, quaternary: 0.25% 201 + 0.25% 305): 59500 ng/mL; Concentration of guest molecule in solution ([4]; Comparative Example 4, quaternary: 0.25% 201 + 0.25% 309): 29200 ng/mL; Concentration of guest molecule in solution ([4]; quaternary: 0.25% 201 (102H+101) + 0.25% 307): 362500 ng/mL; Concentration of guest molecule in solution ([4]; quaternary: 0.25% 201 (102H+101) + 0.25% 308): 516000 ng/mL; Concentration of guest molecule in solution ([4]; quaternary: 0.25% 201 (102H+101) + 0.25% 313): 474600 ng/mL; Concentration of guest molecule in solution ([4]; quaternary: 0.25% 201 (102H+101) + 0.25% 320): 562400 ng/mL; Concentration of guest molecule in solution ([4]; quaternary: 0.25% 201 (102H+101) + 0.25% 321): 596300 ng/mL; LogP [5]: LogP 3.55
COc1cc2nccc(Oc3ccc(NC(=O)NC4CC4)c(Cl)c3)c2cc1C(N)=O [Lenvatinib] | 7600 | 1700 | 900 | 45500 | 29300 | 28600 | 76800 | 26200 | 27800 | 12900 | 11300 | 7600 | 7300 | 7900 | 6500 | 68200 | 9700 | 6100 | Concentration of the target in the solution measured after different incubation time ([3]; binary system with 0.5% polymer 104, incubation 0.5 h): 37800 ng/mL; Concentration of the target in the solution measured after different incubation time ([3]; binary system with 0.5% polymer 104, incubation 3 h): 42700 ng/mL; Concentration of the target in the solution measured after different incubation time ([3]; binary system with 0.5% polymer 104, incubation 6 h): 67500 ng/mL; Concentration of guest molecule in solution ([3]; binary: 102H, % not stated at the place): 59500 ng/mL; Concentration of guest molecule in solution ([3]; binary: 104, % not stated at the place): 47600 ng/mL; Concentration of guest molecule in solution ([4]; quaternary: 0.25% 205 (102H+104) + 310): 116400 ng/mL; Concentration of guest molecule in solution ([4]; quaternary: 0.25% 205 (102H+104) + 313, carrier % not stated): 112100 ng/mL; LogD7.4 or Log P [5]: 2.52
